Read-outs that look alike come from different tables or passages of the source.
Columns and labels:
hSTING(H232) = hSTING(H232) (Homo sapiens, UniProt Q86WV6); test: Luciferase reporter assay in HEK293T-hSTING-Luciferase cells, H232/REF polymorph; type: cell-based; conditions: H232/REF polymorph of human STING, EC50 range class
Description: (§1) Stable Cell Line Generation • a) Stable STING expressing cells—Stable HEK293T STING-expressing cell lines were generated using plasmids purchased from Invivogen, CA, USA, that contain STING cDNA cloned into the pUNO-1 vector under hEF1-HTLV promoter and containing the Blasticidin selection cassette. The plasmids hSTING(R232), hSTING(H232), hSTING(HAQ) were directly procured from Invivogen while hSTING (AQ) and hSTING (Q) were derived from hSTING(HAQ) and hSTING (R232) plasmids respectively by using a PCR based site directed mutagenesis method. These vectors were individually transfected into HEK293T cells using Lipofectamine (Invitrogen) and transfected cells were selected under Blasticidin selection. These transfected cells were further subjected to clonal selection using the limiting dilution method to obtain clonally pure populations of HEK cells transfected with each of the above mentioned human STING variants. Only those clones were selected in which ligand independent activation of STING was minimal. • b) Stable Luciferase reporter gene expressing cells—Stable HEK293T Luciferase reporter gene expressing cell lines were generated using pCDNA4 plasmids under an IRF-inducible promoter. This promoter is comprised of five tandem interferon-stimulated response elements (ISRE) fused to an ISG54 minimal promoter. This vector was transfected into HEK293T cells using Lipofectamine (Invitrogen) and transfected cells were selected under Zeocin selection. These transfected cells were further subjected to clonal selection using the limiting dilution method to obtain clonally pure populations of HEK cells transfected the Luciferase reporter construct. Only those clones were selected in which ligand independent induction of luciferase was minimal.
(§2) 5×10^5 clonally selected HEK293T-hSTING-Luciferase cells were seeded in 384-well plates in growth medium and stimulated with novel compounds. After 20 hr of stimulation supernatant were removed and secretary reporter gene activity were measured using the Quanti-Luc detection system (Invivogen) on a Spectramax i3X luminometer.
(§3) In the tables below, EC50 value ranges for exemplary compounds are given.
(§4) Single nucleotide polymorphisms of human STING have been described, which can affect the functional potency of compounds that modulate the activity of the STING protein (see Yi et. al., PLoS One, October 2013, 8(10), e77846). The 5 major polymorphisms of human STING are shown in FIG. 1, with their prevalence in human populations indicated.
(§5) The tables below show the potency of selected compounds of the invention against the most common polymorphisms.

hSTING(R232) = hSTING(R232) (Homo sapiens, UniProt Q86WV6, H232R); test: Luciferase reporter assay in HEK293T-hSTING-Luciferase cells, R232 (wild type) human STING; type: cell-based; conditions: 20 hr stimulation, read-out: R232 human activity (EC50 range)
Chain of hSTING(R232) (Q86WV6 whole entry H232R): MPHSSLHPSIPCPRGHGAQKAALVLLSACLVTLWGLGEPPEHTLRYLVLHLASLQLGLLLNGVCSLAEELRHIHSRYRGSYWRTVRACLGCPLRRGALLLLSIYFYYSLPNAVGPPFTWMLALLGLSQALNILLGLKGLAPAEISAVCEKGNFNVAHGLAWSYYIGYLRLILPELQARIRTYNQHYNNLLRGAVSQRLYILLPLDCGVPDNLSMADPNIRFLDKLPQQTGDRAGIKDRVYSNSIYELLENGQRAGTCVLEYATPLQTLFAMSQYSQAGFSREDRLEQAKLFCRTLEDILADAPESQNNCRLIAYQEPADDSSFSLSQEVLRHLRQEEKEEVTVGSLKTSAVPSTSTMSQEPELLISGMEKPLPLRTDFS
Summary of the method: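 Clonal HEK293T cells stably expressing STING from a pUNO-1 plasmid plus an ISRE/ISG54-driven secreted luciferase reporter; 5×10^5 cells stimulated with compound for 20 hr. Supernatant luciferase read by luminescence, giving fold-induction over baseline and EC50.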

hSTING(HAQ) = hSTING(HAQ) (Homo sapiens, UniProt Q86WV6, G230A/H232R/R293Q/R71H); test: Luciferase reporter assay in HEK293T-hSTING-Luciferase cells, HAQ polymorph; type: cell-based; conditions: HAQ polymorph of human STING, EC50 range class
Chain of hSTING(HAQ) (Q86WV6 whole entry R71H/G230A/H232R/R293Q): as the sequence (Q86WV6 whole entry H232R) above, with R71H, G230A, R293Q counted along it
Description: as §1, §2, §3, §4, §5

IRF pathway = test: Reporter gene expression assay in THP1-Dual cells, IRF axis (secreted Lucia luciferase); type: cell-based, human; conditions: 20 hr stimulation, EC50 range class, read-out: THP-IRF activity
Procedure: (§6) THP1-Dual™ cells (Invivogen) were derived from the human THP-1 monocyte cell line by stable integration of two inducible reporter constructs. As a result, THP1-Dual™ cells allow the simultaneous study of the NF-κB pathway, by monitoring the activity of secreted SEAP, and the IRF pathway, by assessing the activity of a secreted luciferase (Lucia). 5×10^5 THP1-Dual™ cells were seeded in 384-well plates in growth medium and stimulated with novel compounds. After 20 hr of stimulation supernatants were removed and reporter proteins were readily measured in the cell culture supernatant using QUANTI-Blue™ (Invivogen), a SEAP detection reagent, and QUANTI-Luc™ (Invivogen), a luciferase detection reagent on a Spectramax i3X luminometer.
(§7) EC50 value ranges for exemplary compounds tested in the above assay are given.

[1] = target: cynomolgus monkey STING protein (Macaca fascicularis, UniProt A0A2R3XZA6); test: Luciferase reporter assay, cynomolgus monkey STING overexpressed in HEK293T cells; type: cell-based; conditions: cynomolgus monkey STING overexpressed in HEK293T cells; read-out: Cynomolgus monkey STING activity (EC50 range)
Chain of cynomolgus monkey STING protein (A0A2R3XZA6 entry or part of it): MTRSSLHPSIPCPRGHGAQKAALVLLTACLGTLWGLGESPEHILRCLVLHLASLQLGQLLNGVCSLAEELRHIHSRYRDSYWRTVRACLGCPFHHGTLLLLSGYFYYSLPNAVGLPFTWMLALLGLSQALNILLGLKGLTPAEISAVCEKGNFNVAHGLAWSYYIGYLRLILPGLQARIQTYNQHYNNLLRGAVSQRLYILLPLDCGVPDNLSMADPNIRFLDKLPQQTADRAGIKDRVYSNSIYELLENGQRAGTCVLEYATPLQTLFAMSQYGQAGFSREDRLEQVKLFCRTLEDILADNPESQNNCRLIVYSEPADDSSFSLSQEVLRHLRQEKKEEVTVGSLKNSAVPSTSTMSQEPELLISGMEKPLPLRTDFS
Summary of the method: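 HEK293T cells overexpressing cynomolgus STING with a secreted luciferase reporter were stimulated with compound for 20 hr. Supernatant reporter activity was then measured by Quanti-Luc luminescence, and EC50 values were derived.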

NF-κB pathway = test: Reporter gene expression assay in THP1-Dual cells, NFkB axis (secreted SEAP); type: cell-based, human; conditions: 20 hr stimulation, EC50 range class, read-out: THP-NFκB activity
Procedure: as §6, §7

Chain of hSTING(H232) (Q86WV6 whole entry): as the sequence (Q86WV6 whole entry H232R) above, with R232H counted along it

| Compound | EC50 (hSTING(H232)) | EC50 (hSTING(R232)) | EC50 (hSTING(HAQ)) | EC50 (IRF pathway) | EC50 [1] | EC50 (NF-κB pathway) | EC50 (IRF pathway; Homo sapiens) | EC50 (NF-κB pathway; Homo sapiens) |
| --- | --- | --- | --- | --- | --- | --- | --- | --- |
| C[C@H]1c2ccc(C(=O)NCc3c(F)cc(F)cc3F)cc2N(Cc2c(F)ccc(N)c2Cl)C(=O)N1C [Example 188, (S)-1-(3-amino-2-chloro-6-fluorobenzyl)-3,4-dimethyl-2-oxo-N-(2,4,6-trifluorobenzyl)-1,2,3,4-tetrahydroquinazoline-7-carboxamide] | < 1000 nM | < 1000 nM | < 1000 nM | – | < 1000 nM | – | < 1000 nM | < 1000 nM |
| C[C@H]1c2ccc(C(=O)NCc3c(F)cc(F)cc3F)cc2N(Cc2c(F)cc(OCCNS(C)(=O)=O)cc2F)C(=O)N1C [Example 290, (S)-1-(2,6-difluoro-4-(2-(methylsulfonamido)ethoxy)benzyl)-3,4-dimethyl-2-oxo-N-(2,4,6-trifluorobenzyl)-1,2,3,4-tetrahydroquinazoline-7-carboxamide] | < 1000 nM | < 1000 nM | < 1000 nM | – | < 1000 nM | – | < 1000 nM | < 1000 nM |
| C[C@H]1c2ccc(C(=O)NCc3c(F)cc(F)cc3F)cc2N(Cc2c(F)cc(OCCO)cc2F)C(=O)N1C [Example 80, (S)-1-(2,6-Difluoro-4-(2-hydroxyethoxy)benzyl)-3,4-dimethyl-2-oxo-N-(2,4,6-trifluorobenzyl)-1,2,3,4-tetrahydroquinazoline-7-carboxamide] | < 1000 nM | < 1000 nM | < 1000 nM | – | < 1000 nM | – | 1000 to 10000 nM | 1000 to 10000 nM |
| C[C@H]1c2ccc(C(=O)NCc3c(F)cc(F)cc3F)cc2N(Cc2c(F)cc(OCCCO)cc2F)C(=O)N1C [Example 81, (S)-1-(2,6-difluoro-4-(3-hydroxypropoxy)benzyl)-3,4-dimethyl-2-oxo-N-(2,4,6-trifluorobenzyl)-1,2,3,4-tetrahydroquinazoline-7-carboxamide] | < 1000 nM | < 1000 nM | < 1000 nM | – | < 1000 nM | – | < 1000 nM | < 1000 nM |
| C[C@H]1c2ccc(C(=O)NCc3c(F)cc(F)cc3F)cc2N(Cc2c(F)cc(O)cc2Cl)C(=O)N1C [Example 298, (S)-1-(2-chloro-6-fluoro-4-hydroxybenzyl)-3,4-dimethyl-2-oxo-N-(2,4,6-trifluorobenzyl)-1,2,3,4-tetrahydroquinazoline-7-carboxamide] | < 1000 nM | < 1000 nM | < 1000 nM | – | < 1000 nM | – | < 1000 nM | < 1000 nM |

Continued, values first:

| EC50 (hSTING(H232)) | EC50 (hSTING(R232)) | EC50 (hSTING(HAQ)) | EC50 (IRF pathway) | EC50 [1] | EC50 (NF-κB pathway) | EC50 (IRF pathway; Homo sapiens) | EC50 (NF-κB pathway; Homo sapiens) | Compound |
| --- | --- | --- | --- | --- | --- | --- | --- | --- |
| < 1000 nM | < 1000 nM | < 1000 nM | < 1000 nM | < 1000 nM | < 1000 nM | – | – | COc1cccc(F)c1CN1C(=O)N(C)C(C)c2ccc(C(=O)NCc3c(F)cc(F)cc3F)cc21 (stereo not drawn) [Example 154, 1-(2-fluoro-6-methoxybenzyl)-3,4-dimethyl-2-oxo-N-(2,4,6-trifluorobenzyl)-1,2,3,4-tetrahydroquinazoline-7-carboxamide] |
| < 1000 nM | < 1000 nM | < 1000 nM | – | < 1000 nM | – | < 1000 nM | < 1000 nM | C[C@H]1c2ccc(C(=O)NCc3c(F)cc(F)cc3F)cc2N(Cc2c(F)cc(OC[C@@H](O)CO)cc2F)C(=O)N1C [Example 147, (S)-1-(4-((S)-2,3-Dihydroxypropoxy)-2,6-difluorobenzyl)-3,4-dimethyl-2-oxo-N-(2,4,6-trifluorobenzyl)-1,2,3,4-tetrahydroquinazoline-7-carboxamide] |

Source: patent publication US11571423B2, “Small molecule modulators of human sting” (Curadev Pharma Limited, priority 2017, dated 2023)
